Data: ChEMBL document CHEMBL6083214, “Synthesis, biochemical screening and in-silico investigations of arylsulfonamides bearing linear and cyclic tails” (Bioorg Med Chem Lett, 2024)

Columns and labels:
[1] = target: Carbonic anhydrase 2 (Homo sapiens, UniProt P00918)
Description: Inhibition of human carbonic anhydrase II assessed as inhibition constant by stopped-flow carbon dioxide hydrase assay

[2] = target: Carbonic anhydrase 12 (Homo sapiens, UniProt O43570)
Description: Inhibition of human carbonic anhydrase XII assessed as inhibition constant by stopped-flow carbon dioxide hydrase assay

[3] = target: Carbonic anhydrase 9 (Homo sapiens, UniProt Q16790)
Description: Inhibition of human carbonic anhydrase IX assessed as inhibition constant by stopped-flow carbon dioxide hydrase assay

[4] = target: Carbonic anhydrase 1 (Homo sapiens, UniProt P00915)
Sequence of Carbonic anhydrase 1 (P00915 whole entry): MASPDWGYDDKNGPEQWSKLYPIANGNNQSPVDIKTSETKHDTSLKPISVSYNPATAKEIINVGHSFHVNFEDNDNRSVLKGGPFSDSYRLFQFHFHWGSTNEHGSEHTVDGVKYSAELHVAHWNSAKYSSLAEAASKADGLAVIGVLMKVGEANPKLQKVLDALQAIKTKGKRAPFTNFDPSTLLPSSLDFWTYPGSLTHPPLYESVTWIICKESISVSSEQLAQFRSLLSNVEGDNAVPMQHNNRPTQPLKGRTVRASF
Description: Inhibition of human carbonic anhydrase I assessed as inhibition constant by stopped-flow carbon dioxide hydrase assay

Sequence of Carbonic anhydrase 12 (O43570 whole entry): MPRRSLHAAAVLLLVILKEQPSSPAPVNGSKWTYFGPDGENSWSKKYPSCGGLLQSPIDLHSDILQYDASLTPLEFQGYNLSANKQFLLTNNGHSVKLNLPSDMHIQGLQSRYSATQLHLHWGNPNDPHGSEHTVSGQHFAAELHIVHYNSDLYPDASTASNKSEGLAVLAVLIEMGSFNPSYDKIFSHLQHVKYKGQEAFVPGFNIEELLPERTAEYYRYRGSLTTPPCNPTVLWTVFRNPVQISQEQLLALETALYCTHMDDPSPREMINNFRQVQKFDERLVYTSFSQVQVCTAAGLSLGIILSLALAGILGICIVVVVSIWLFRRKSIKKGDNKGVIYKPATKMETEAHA

Ki [1]	Ki [2]	Ki [3]	Ki [4]	SMILES
8.2 nM	89.9 nM	3.7 nM	8.6 nM	N#Cc1ccc(C2SCCC(=O)N2c2ccc(S(N)(=O)=O)cc2)cc1 (racemic)
7.8 nM	9.4 nM	74.6 nM	13.6 nM	NS(=O)(=O)c1ccc(N2C(=O)CCSC2c2ccc(F)cc2)cc1 (racemic)
9 nM	8.2 nM	19.9 nM	62.4 nM	NS(=O)(=O)c1ccc(N2C(=O)CCSC2c2ccc(Cl)cc2)cc1 (racemic)
80.1 nM	7.1 nM	54.8 nM	82.9 nM	NS(=O)(=O)c1ccc(N2C(=O)CCSC2c2ccc([N+](=O)[O-])cc2)cc1 (racemic)

More lines, now with the values behind:

SMILES	Ki [1]	Ki [2]	Ki [3]	Ki [4]
NS(=O)(=O)c1ccc(/N=C/c2ccc(Cl)cc2)cc1	22.6 nM			
N#Cc1cccc(C2SCCC(=O)N2c2ccc(S(N)(=O)=O)cc2)c1 (racemic)	14.6 nM	61.1 nM	18.9 nM	7.2 nM
NS(=O)(=O)c1ccc(/N=C/c2ccc([N+](=O)[O-])cc2)cc1	25.7 nM			
